Measured values: patent US6770671B2, “7,8-dihydro-xanthenone-8-carboxylic acid derivative and novel microbe producing the same” (Korea Research Institute of Bioscience and Biotechnology, priority 2000, dated 2004)
Values joined by “and” are separate entries in the source; they are usually repeats but may differ in a detail not shown here. Identical values can stand only once. “Also recorded” adds a separate entry of the source.

Experiments:
[1] = test system: smooth muscle myosin light chain kinase; settings: Nakanishi et al., J. Antibiotics 1993; cited from earlier work
protein kinase C = settings: Nakanishi et al., J. Antibiotics 1993; cited from earlier work
[2] = test system: angiogenesis in chorioallantoic membrane; test: Chorioallantoic membrane (CAM) assay using fertilized eggs; type: in vivo; settings: for Inhibition ratio (%): percentage of positive eggs to total tested eggs
Method: <4-2> Inhibitory Effect on in vivo Angiogenesis Chorioallantoic membrane assay using fertilized eggs was used to examine whether the novel compound ACRL-B4 of the present invention is effective to inhibit angiogenesis in vivo.
After being grown at 37° C. for three days at a humidity of 90% in an incubator, fertilized eggs were deprived of 2 ml of albumin through a 18-gauge subcutaneous injection needle. On the fourth day, a circular window was cut into each of the eggs and the outer layers of their chorioallantoic membranes were removed. Separately, pieces of thermanox coverslip were coated with the ACRL-B4 compound dissolved in ethanol at the concentration of 1 and 5 μg/coverslip and the ethanol was evaporated. On day 4.5, the thermanox coverslip were placed on the embryonic chorioallantoic membranes of the embryos. After 2 days incubation at 37° C., 1-2 ml of 10% fat emulsion was injected into chorioallantois and observed blood vessel formation during an embryogenesis or development procedure under a microscope. As a positive control, 1 μg/egg of retinoic acid was used and a negative control was non-treated coverslip.

[3] = test system: Lewis lung carcinoma 3LL cells; test: In vivo tumor growth, 3LL Lewis lung carcinoma in C57BL/6 mice; design: species or system mouse; settings: for inhibition of tumor growth: 3LL in C57BL/6 mice
Method: Into the backs of C57BL/6 mice 4-5 weeks old, 10^6 3LL cancer cells (Korean Collection for Type Culture at Korea Research Institute of Bioscience and Biotechnology) were subcutaneously transplanted. When the tumors were grown to sizes of 100-250 mm^3, the mice were randomly mixed and divided into 4 groups, each of 6 members, to which drugs were administered. For Group 1, only a solvent was used, while the novel compound ACRL-B4 represented by the chemical formula 1 was intraperitoneally injected every other day at doses of 30 mg/kg, 15 mg/kg and 5 mg/kg to Groups 2 to 4, respectively, under the monitoring of tumor sizes and body weights. The test compound was dissolved in a solvent mixture of 85% physiological saline, 5% DMSO (dimethylsulfoxide) and 10% cremophore.
Tumor sizes were calculated according to the following mathematical formula 1, and since the transplantation of cancer cells, changes in tumor size had been measured and the results are depicted in FIG. 2. [formula]

[4] = Acute toxicity test on rat upon oral administration; settings: in vivo, 500 mg/kg
Method: Using specific pathogen-free (SPF) SD rats, which were six weeks old, the 7,8-dihydro-xanthenone-8-carboxylic acid derivative of the present invention were tested for acute toxicity.
Suspensions of the compound of the present invention in 0.5% methyl cellulose were orally administered once at a dose of 500 mg/kg/15 ml to the rats, which were grouped in threes. […] An autopsy was made of the rats with the naked eye to observe whether their abdominal and thoracic organs were damaged.

B16-BL6 melanoma cells = test: In vivo tumor growth, B16-BL6 melanoma in C57BL/6 mice; design: species or system mouse; settings: for inhibition of tumor growth: B16-BL6 in C57BL/6 mice
Method: Onto the back of C57BL/6 mice 4-5 weeks old, 10^6 B16-BL6 melanoma cells were subcutaneously transplanted. When the tumors were grown to sizes of 100-250 mm^3, the mice were randomly mixed and divided into 4 groups, each of 6 members, to which drugs were then administered. For Group 1, only a solvent was used, while the novel compound ACRL-B4 represented by the chemical formula 1 was intraperitoneally injected every other day at doses of 30 mg/kg, 15 mg/kg and 5 mg/kg to Groups 2 to 4, respectively, with monitoring of tumor sizes and body weights. The test compound was dissolved in a solvent mixture of 85% physiological saline, 5% DMSO (dimethylsulfoxide) and 10% cremophore.
For the calculation of cancer sizes, the mathematical formula 1 was used, and since the transplantation of cancer cells, changes in tumor size had been measured and the results are depicted in FIG. 3.

[5] = test system: bFGF-induced proliferation of HUVEC; test: bFGF-induced HUVEC proliferation (acid phosphatase assay); type: cell-based, human; settings: bFGF 20 ng/ml; 0.004-10 μg/ml compound; 48 hours; FIG. 1
From the text: (§1) To determine the inhibitory effect of the compound represented by the chemical formula 1 on angiogenesis, endothelial cells were used as a model on the basis that they are migrated and differentiated into capillary tubes under a specific culture condition, that is, in the presence of angiogenic factors such as VEGF, bFGF, etc. Stimulation by angiogenic factors triggers complex, intracellular reactions of endothelial cells and causes them to undergo cell proliferation and differentiation, resulting in the induction of angiogenesis. […] In gelatin-coated 96-well plates, HUVEC cultured in an M199 medium (20% FBS, 3 ng/ml bFGF, 100 μg/ml heparin) was plated at a density of 10^4 cells/well and cultured for 24 hours under the condition of serum starvation. Thereafter, VEGF and bFGF were independently added at a concentration of 20 ng/ml per well and ACRL-B4 was also added at concentrations of 0.004, 0.02, 0.08, 0.4, 2 and 10 μg/ml while control wells were treated with angiogenic factors only. After 48 hours incubation, the inhibition of HUVEC proliferation by the ACRL-B4 was quantitatively analyzed by an acid phosphatase assay.

[6] = test system: VEGF-induced proliferation of HUVEC; test: VEGF-induced HUVEC proliferation (acid phosphatase assay); type: cell-based, human; settings: VEGF 20 ng/ml; 0.004-10 μg/ml compound; 48 hours; FIG. 1
From the text: as §1

COC(=O)C12OC1C=Cc1oc3cc(CO)cc(O)c3c(=O)c12 (stereo not shown) [MS-347a]
inhibition of smooth muscle myosin light chain kinase [1]: inhibitory activity against smooth muscle myosin light chain kinase | inhibition of protein kinase C (protein kinase C): inhibitory activity

CC1=C(/C=C/C(C)=C/C=C/C(C)=C/C(=O)O)C(C)(C)CCC1 [Positive control, retinoic acid, reference compound]
No. of egg showing anti-angiogenesis ([2]; 1 μg/egg): 6 | Inhibition ratio (%) ([2]; 1 μg/egg): 75%

COC(=O)c1c(O)ccc2oc3cc(CO)cc(O)c3c(=O)c12 [sydowinin B]
inhibition of smooth muscle myosin light chain kinase [1]: inhibitor of smooth muscle myosin light chain kinase

COC(=O)C1c2c(oc3cc(CO)cc(O)c3c2=O)C=CC1O (stereo not shown) [ACRL-B4, 7,8-dihydro-1,7-dihydroxy-3-hydroxymethyl-xanthenone-8-carboxylic acid methyl ester]
inhibition of tumor growth ([3]; 5 mg/kg i.p. every other day): 40% | inhibition of tumor growth ([3]; 15 mg/kg i.p. every other day): 60% | inhibition of tumor growth ([3]; 30 mg/kg i.p. every other day): 80% | side effects / body weight ([3]; 5-30 mg/kg i.p. every other day, 3LL-bearing C57BL/6 mice): did not exhibit toxic effects such as weight loss; also recorded: without causing side effects such as loss of body weight | No. of egg showing anti-angiogenesis ([2]; 1 μg/egg): 10 | Inhibition ratio (%) ([2]; 1 μg/egg): 71% and 71.4% | No. of egg showing anti-angiogenesis ([2]; 5 μg/egg): 9 | Inhibition ratio (%) ([2]; 5 μg/egg): 90% | LD50 ([4]; oral, single dose, SD rats, read-out: lethal dose (LD50)): ≥ 500 mg/kg | death and clinical symptoms ([4]; po): Neither sudden death nor noticeable clinical symptoms were detected | toxicity signs (weight change, serological tests, serobiochemical tests, corpse examination) ([4]; po): no toxicity signs were observed | inhibition of tumor growth (B16-BL6 melanoma cells; 5 mg/kg i.p. every other day): 40% | inhibition of tumor growth (B16-BL6 melanoma cells; 15 mg/kg i.p. every other day): 50% | inhibition of tumor growth (B16-BL6 melanoma cells; 30 mg/kg i.p. every other day): 65% | side effects / body weight (B16-BL6 melanoma cells; 5-30 mg/kg i.p. every other day, B16-BL6-bearing C57BL/6 mice): did not exhibit toxic effects such as weight loss; also recorded: without causing side effects such as loss of body weight | inhibition of bFGF-induced HUVEC proliferation [5]: inhibit the HUVEC proliferation induced by angiogenic factors | inhibition of VEGF-induced HUVEC proliferation [6]: specifically inhibit the VEGF-induced proliferation of HUVEC; also recorded: potent inhibitory activity against the proliferation of HUVEC; also recorded: inhibit the HUVEC proliferation induced by angiogenic factors, especially VEGF
